Where “and” joins values, the source holds several entries; their conditions need not be identical. Identical values can stand only once. Inconclusive results and toxic doses are left out.

In the test the test system is P388 leukemia ip, CD2F1 mice, survival T/C. Kind of test: NCI In Vivo Anticancer Drug Screen. Data for tumor model P388 Leukemia (intraperitoneal) in CD2F1 (CDF1) mice. The following applies: endpoint: median survival time, higher = longer survival. The method, boiled down:
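Mice carrying the transplanted tumor received test compound or vehicle. Survival was recorded in each group, and the value is the treated-group measurement divided by that of the vehicle-treated control group.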

[1] abbreviates: dose: 50.0 mg/kg/injection, schedule: Q01DX009 (ip), vehicle: saline with Tween-80.
Where [2] appears, read: dose: 100.0 mg/kg/injection, schedule: Q01DX009 (ip), vehicle: saline with Tween-80.
The mark [3] stands for this setting: dose: 200.0 mg/kg/injection, schedule: Q01DX009 (ip), vehicle: saline with Tween-80.
Where [4] appears, read: dose: 60.0 mg/kg/injection, schedule: Q01DX005 (ip), vehicle: saline with Tween-80.
Where [5] appears, read: dose: 120.0 mg/kg/injection, schedule: Q01DX005 (ip), vehicle: saline with Tween-80.
Setting [6] is: dose: 240.0 mg/kg/injection, schedule: Q01DX005 (ip), vehicle: saline with Tween-80.

In the case of `S=P(N1CC1)(N1CC1)N1CC1`, the T/C (dose: 0.62 mg/kg/injection, schedule: Q01DX005 (ip), vehicle: saline) is 100 % of control; the T/C (dose: 0.75 mg/kg/injection, schedule: Q01DX005 (ip), vehicle: saline) is 118 % of control; the T/C (dose: 0.75 mg/kg/injection, schedule: Q01DX009 (ip), vehicle: saline) is 106 % of control; the T/C (dose: 1.25 mg/kg/injection, schedule: Q01DX005 (ip), vehicle: saline) is 115 % of control; the T/C (dose: 1.25 mg/kg/injection, schedule: Q04DX003 (ip), vehicle: water) is 101 % of control and 110 % of control (2×); the T/C (dose: 1.5 mg/kg/injection, schedule: Q01DX005 (ip), vehicle: saline) was 114 % of control and 120 % of control. In addition, the T/C by setting is: (dose: 2.0 mg/kg/injection, schedule: Q01DX009 (ip), vehicle: saline) 124 % of control; (dose: 2.5 mg/kg/injection, schedule: Q04DX003 (ip), vehicle: water) 110 % of control; (dose: 3.0 mg/kg/injection, schedule: Q01DX005 (ip), vehicle: saline) 163 % of control; (dose: 3.0 mg/kg/injection, schedule: Q01DX009 (ip), vehicle: saline) 163 % of control and 174 % of control; (dose: 3.24 mg/kg/injection, schedule: Q04DX002 (ip), vehicle: saline) 124 % of control; (dose: 4.0 mg/kg/injection, schedule: Q01DX009 (ip), vehicle: saline) 178 % of control. Further, the T/C reads like this: (dose: 5.0 mg/kg/injection, schedule: Q01DX005 (ip), vehicle: saline) 169 % of control; (dose: 5.0 mg/kg/injection, schedule: Q04DX003 (ip), vehicle: water) 163 % of control; (dose: 6.0 mg/kg/injection, schedule: Q01DX005 (ip), vehicle: saline) 181 % of control and 207 % of control and 90 % of control; (dose: 8.0 mg/kg/injection, schedule: Q01DX009 (ip), vehicle: saline) 101 % of control; (dose: 9.0 mg/kg/injection, schedule: Q04DX002 (ip), vehicle: saline) 166 % of control; (dose: 10.0 mg/kg/injection, schedule: Q04DX003 (ip), vehicle: water) 159 % of control and 200 % of control and 229 % of control. The T/C runs as follows: (dose: 12.0 mg/kg/injection, schedule: Q01DX005 (ip), vehicle: saline) 88 % of control; (dose: 15.0 mg/kg/injection, schedule: Q04DX002 (ip), vehicle: saline) 197 % of control; (dose: 20.0 mg/kg/injection, schedule: Q04DX003 (ip), vehicle: water) 110 % of control and 90 % of control and 92 % of control; (dose: 25.0 mg/kg/injection, schedule: Q04DX002 (ip), vehicle: saline) 240 % of control.
Consider `CC(=O)OCc1ncccc1OC(C)=O`, for which the T/C reads like this: (dose: 25.0 mg/kg/injection, schedule: Q01DX009 (ip), vehicle: saline with Tween-80) 104 % of control; under setting [1], 111 % of control; under setting [2], 104 % of control; under setting [3], 109 % of control.
As to `NC(=S)C1OC(COC(=O)c2ccccc2)C(OC(=O)c2ccccc2)C1OC(=O)c1ccccc1` (stereo unspecified), the T/C is 96 % of control under setting [1], 94 % of control under setting [2] and 102 % of control under setting [3].
As for `C=C(CN1CCCC1)C(=O)c1ccc(OC)cc1`, the T/C (dose: 0.93 mg/kg/injection, schedule: Q01DX005 (ip), vehicle: saline) was 97 % of control; the T/C (dose: 1.87 mg/kg/injection, schedule: Q01DX005 (ip), vehicle: saline) was 117 % of control; the T/C (dose: 3.75 mg/kg/injection, schedule: Q01DX005 (ip), vehicle: saline) is 108 % of control.
Turning to `C/C(=N\NC(=S)N1CCCCCC1)c1cccc(C)n1`, the T/C (dose: 12.5 mg/kg/injection, schedule: Q01DX005 (ip), vehicle: saline with Tween-80) is 110 % of control; the T/C (dose: 25.0 mg/kg/injection, schedule: Q01DX005 (ip), vehicle: saline with Tween-80) is 109 % of control; the T/C (dose: 50.0 mg/kg/injection, schedule: Q01DX005 (ip), vehicle: saline with Tween-80) is 120 % of control.
As for `c1ccc(-c2nc(-c3ccc4c(c3)OCO4)[nH]c2-c2ccccc2)cc1`, the T/C (dose: 50.0 mg/kg/injection, schedule: Q01DX009 (ip), vehicle: Klucel (hydroxypropylcellulose) (HPC)) was 97 % of control; the T/C (dose: 100.0 mg/kg/injection, schedule: Q01DX009 (ip), vehicle: Klucel (hydroxypropylcellulose) (HPC)) is 114 % of control; the T/C (dose: 200.0 mg/kg/injection, schedule: Q01DX009 (ip), vehicle: Klucel (hydroxypropylcellulose) (HPC)) was 112 % of control.
`C[c-]1[c-][c-][c-][c-]1.[C-]#[O+].[C-]#[O+].[C-]#[O+].[Mn]`: the T/C reads like this: (dose: 12.5 mg/kg/injection, schedule: Q01DX005 (ip), vehicle: Klucel (hydroxypropylcellulose) (HPC)) 94 % of control; (dose: 25.0 mg/kg/injection, schedule: Q01DX005 (ip), vehicle: Klucel (hydroxypropylcellulose) (HPC)) 95 % of control; (dose: 50.0 mg/kg/injection, schedule: Q01DX005 (ip), vehicle: Klucel (hydroxypropylcellulose) (HPC)) 99 % of control; (dose: 100.0 mg/kg/injection, schedule: Q01DX005 (ip), vehicle: Klucel (hydroxypropylcellulose) (HPC)) 99 % of control.
As to `C=C(C#N)CSc1c(Cl)c(Cl)c(Cl)c(Cl)c1Cl`, the T/C by setting is: (dose: 25.0 mg/kg/injection, schedule: Q04DX003 (ip), vehicle: Klucel (hydroxypropylcellulose) (HPC)) 88 % of control; (dose: 50.0 mg/kg/injection, schedule: Q04DX003 (ip), vehicle: Klucel (hydroxypropylcellulose) (HPC)) 91 % of control; (dose: 100.0 mg/kg/injection, schedule: Q04DX003 (ip), vehicle: Klucel (hydroxypropylcellulose) (HPC)) 93 % of control and 95 % of control; (dose: 200.0 mg/kg/injection, schedule: Q04DX003 (ip), vehicle: Klucel (hydroxypropylcellulose) (HPC)) 100 % of control and 103 % of control; (dose: 400.0 mg/kg/injection, schedule: Q04DX003 (ip), vehicle: Klucel (hydroxypropylcellulose) (HPC)) 105 % of control.
Consider `CC(C)CC(Nc1nncs1)Nc1nncs1`, for which the T/C under setting [4] is 96 % of control, the T/C under setting [5] is 90 % of control and the T/C under setting [6] was 100 % of control.
As for `COC1C(/C=C/C(=O)CCl)OC2OC(C)(C)OC21` (stereo unspecified), the T/C was 108 % of control (dose: 3.12 mg/kg/injection, schedule: Q01DX005 (ip), vehicle: saline); 108 % of control (dose: 6.25 mg/kg/injection, schedule: Q01DX005 (ip), vehicle: saline); 105 % of control (dose: 12.5 mg/kg/injection, schedule: Q01DX005 (ip), vehicle: saline).
For `Nc1nnc(CCCCCCCc2nnc(N)o2)o1`, the T/C is 104 % of control under setting [4], 99 % of control under setting [5] and 105 % of control under setting [6].
Turning to `CN(C)c1c(-c2ccccc2)nnc(-c2ccccc2)c1-c1ccccc1`, the T/C runs as follows: (dose: 100.0 mg/kg/injection, schedule: Q01DX001 (ip), vehicle: Klucel (hydroxypropylcellulose) (HPC)) 103 % of control; (dose: 200.0 mg/kg/injection, schedule: Q01DX001 (ip), vehicle: Klucel (hydroxypropylcellulose) (HPC)) 100 % of control; (dose: 400.0 mg/kg/injection, schedule: Q01DX001 (ip), vehicle: Klucel (hydroxypropylcellulose) (HPC)) 101 % of control.
On to `COc1ccc(N2C(=O)CC(n3ccccc3=O)C2=O)cc1` (stereo unspecified), for which the T/C is, setting by setting: (dose: 100.0 mg/kg/injection, schedule: Q04DX002 (ip), vehicle: saline with Tween-80) 100 % of control; (dose: 200.0 mg/kg/injection, schedule: Q04DX002 (ip), vehicle: saline with Tween-80) 99 % of control; (dose: 400.0 mg/kg/injection, schedule: Q04DX002 (ip), vehicle: saline with Tween-80) 101 % of control.
Take `Cc1cc(NCCCCCCNc2cc(C)nc3cc(N(C)C)ccc23)c2ccc(N(C)C)cc2n1`: the T/C is 110 % of control (dose: 1.56 mg/kg/injection, schedule: Q01DX009 (ip), vehicle: distilled water + Tween-80 + alcohol); 151 % of control (dose: 6.25 mg/kg/injection, schedule: Q01DX009 (ip), vehicle: distilled water + Tween-80 + alcohol); 154 % of control and 158 % of control (dose: 12.5 mg/kg/injection, schedule: Q01DX009 (ip), vehicle: distilled water + Tween-80 + alcohol); 178 % of control and 181 % of control (dose: 25.0 mg/kg/injection, schedule: Q01DX009 (ip), vehicle: distilled water + Tween-80 + alcohol).
As for `COc1cc(NCCCCCCCNC(C)C)c2nccc(C)c2c1`, the T/C reads like this: (dose: 3.13 mg/kg/injection, schedule: Q01DX009 (ip), vehicle: saline) 105 % of control; (dose: 6.25 mg/kg/injection, schedule: Q01DX009 (ip), vehicle: saline) 102 % of control; (dose: 12.5 mg/kg/injection, schedule: Q01DX009 (ip), vehicle: saline) 99 % of control.
`CNC(=O)Nc1ccnc2ccc3c(ncn3C(=O)NC)c12`: the T/C (dose: 100.0 mg/kg/injection, schedule: Q01DX001 (ip), vehicle: saline with Tween-80) is 104 % of control and the T/C (dose: 200.0 mg/kg/injection, schedule: Q01DX001 (ip), vehicle: saline with Tween-80) was 98 % of control.
